# The source made the active and inactive calls. No cut-off for these calls is given here.
# Experiments:
# Liver microsomes = assay: Metabolic stability in human liver microsomes; type: ADME, Microsome
# [1] = Chemical stability in MeCN/water solution used as 100 mg/mL solution at room temperature; type: physicochemical; details: buffer
# [2] = Chemical stability in MeCN/water solution used as 50 mg/mL solution at -20 degC; type: physicochemical; details: buffer
# [3] = Chemical stability in MeCN/water solution used as 0.5 mg/mL solution at -20 degC; type: physicochemical; details: buffer
# Liver = assay: Metabolic stability in mouse liver microsomes; type: ADME, Microsome
# [4] = Antioxidant activity assessed as scavenging of morpholino sydononimine based nitric oxide release by chemiluminescence assay; type: functional
# Butyrylcholinesterase = Butyrylcholinesterase (Equus caballus, UniProt Q9N1N9); assay: Inhibition of equine BuChE after 120 mins by Ellman's method
# [5] = system: Radical scavenging activity; assay: Antioxidant activity of the compound assessed as DPPH radical scavenging at 10 uM after 30 secs by spectrophotometry; type: functional
# [6] = Antioxidant activity assessed as scavenging of glucose oxidase-generated H2O2 and hydroxyl radicals by chemiluminescence assay; type: functional
# [7] = Selectivity ratio of IC50 for equine BuChE to IC50 for bovine AChE
# Gallus gallus [8] = species: Gallus gallus; assay: Prevention of apoptosis in chick primary telencephalon neurons assessed as protection against serum deprivation-induced oxidative stress at 10 nM measured on day 8 by MTT assay; type: functional
# Acetylcholinesterase = target: T1, Acetylcholinesterase (Bos taurus, UniProt P23795); assay: Inhibition of bovine AChE after 120 mins by Ellman's method
# T1 sequence (P23795 whole entry): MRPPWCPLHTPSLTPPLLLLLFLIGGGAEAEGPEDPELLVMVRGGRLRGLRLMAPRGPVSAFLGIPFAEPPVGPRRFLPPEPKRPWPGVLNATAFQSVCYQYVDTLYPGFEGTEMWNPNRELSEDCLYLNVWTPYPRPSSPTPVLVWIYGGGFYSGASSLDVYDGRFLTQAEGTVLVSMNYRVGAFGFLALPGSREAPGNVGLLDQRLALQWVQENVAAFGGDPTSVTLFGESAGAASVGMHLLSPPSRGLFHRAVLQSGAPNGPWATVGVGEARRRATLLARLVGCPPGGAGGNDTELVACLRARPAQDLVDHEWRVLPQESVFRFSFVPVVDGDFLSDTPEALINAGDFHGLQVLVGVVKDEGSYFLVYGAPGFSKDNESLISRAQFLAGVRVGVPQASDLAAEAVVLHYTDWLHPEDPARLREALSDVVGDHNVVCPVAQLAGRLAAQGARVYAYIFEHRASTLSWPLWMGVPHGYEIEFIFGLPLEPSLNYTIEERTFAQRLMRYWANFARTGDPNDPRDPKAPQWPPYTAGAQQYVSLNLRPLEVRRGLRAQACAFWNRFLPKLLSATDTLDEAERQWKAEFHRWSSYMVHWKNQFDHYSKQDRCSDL
# H9c2 [9] = assay: Prevention of apoptosis in rat H9c2 cells assessed as protection against oxidative stress-induced cytotoxicity at 100 nM […] by Alamar blue assay; type: functional
# Gallus gallus [10] = species: Gallus gallus; assay: Prevention of apoptosis in chick primary telencephalon neurons assessed as protection against serum deprivation-induced cytotoxicity at 1 to 10 uM by MTT assay; type: functional
# H9c2 [11] = assay: Prevention of apoptosis in rat H9c2 cells assessed as reduction in fall of mitochondrial membrane potential at 100 nM after 1 hr; type: functional; set-up: scale not given: the % may be the effect or the level left
# [12] = Cytotoxicity against rat H9c2 cells assessed as cell viability in absence of H2O2; type: cell-based; set-up: concentration or dose not given beside the values; details: read-out: Activity
# H9c2 [13] = assay: Prevention of apoptosis in rat H9c2 cardiomyocytes assessed as protection against oxidative stress-induced cytotoxicity at 1 pM to 1 nM after 1 hr by Alamar blue assay; type: functional
# [14] = Antioxidant activity of the compound assessed as DHR radical scavenging activity at 10 uM by fluorescence assay; type: functional
# [15] = Antioxidant activity of the compound assessed as scavenging of hydroxyl radical by chemiluminometric method; type: functional
# [16] = Antioxidant activity of the compound assessed as scavenging of peroxynitrite by chemiluminometric method; type: functional
# Chain of Butyrylcholinesterase (Q9N1N9 whole entry): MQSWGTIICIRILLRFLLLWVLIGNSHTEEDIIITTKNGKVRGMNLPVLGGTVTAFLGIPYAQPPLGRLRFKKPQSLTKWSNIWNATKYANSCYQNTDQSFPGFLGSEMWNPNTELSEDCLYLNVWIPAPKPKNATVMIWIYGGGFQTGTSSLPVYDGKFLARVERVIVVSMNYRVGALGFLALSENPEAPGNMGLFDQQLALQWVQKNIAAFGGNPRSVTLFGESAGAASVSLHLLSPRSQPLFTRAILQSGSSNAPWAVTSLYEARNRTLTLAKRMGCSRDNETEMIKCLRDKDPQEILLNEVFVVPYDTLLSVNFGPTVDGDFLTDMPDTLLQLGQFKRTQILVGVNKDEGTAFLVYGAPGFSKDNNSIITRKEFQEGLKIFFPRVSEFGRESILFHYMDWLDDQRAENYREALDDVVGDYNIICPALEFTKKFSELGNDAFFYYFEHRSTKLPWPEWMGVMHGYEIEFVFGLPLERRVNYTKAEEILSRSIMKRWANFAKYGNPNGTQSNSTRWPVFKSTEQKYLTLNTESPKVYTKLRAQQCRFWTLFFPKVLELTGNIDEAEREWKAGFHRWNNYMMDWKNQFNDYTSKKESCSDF
Structure (SMILES),IC50 [4] [µM],IC50 (Butyrylcholinesterase) [µM],IC50 [6] [µM],Ratio IC50 [7],IC50 (Acetylcholinesterase) [µM],Activity (H9c2 [9]),viability [12] [%],other results
CCN(C)C(=O)Oc1ccc2c(c1)NCC2CCC(=O)OC.O=C(O)CC(O)(CC(=O)O)C(=O)O (configuration not stated),,,,,,,,Stability (Liver microsomes): Unstable; Stability [1]: Unstable; Stability [2]: Stable; Stability [3]: Stable; Stability (Liver): Unstable
CCN(C)C(=O)Oc1cccc2c1C(CCN)CN2 (configuration not stated),2.13,0.2,0.07,0.5,,,,Activity [5]: 36.3%
CCN(C)C(=O)Oc1cccc2c1CCN2.Cl,0.57,0.7,1.38,0.1,7.2,35.3%,,Activity [5]: 15%; Activity (Gallus gallus [8]): Active; Activity (Gallus gallus [10]): Active
CCCCN(C)C(=O)Oc1ccc2c(c1)NCC2CCC(=O)OC.Cl (configuration not stated),,404,24.1,6.5,62.3,40.1%,87.8,Activity (H9c2 [11]): 54%
CCN(C)C(=O)Oc1cccc2c1CCN2CCC(=O)OC,8.49,0.7,0.3,,,,,Activity [5]: 27.8%
CCN(C)C(=O)Oc1cccc2c1C(CCC(=O)O)CN2C.Cl (configuration not stated),,9.7,1.64,0.078,124,57.4%,106,Activity (H9c2 [13]): 43%
O=c1c(O)c(-c2ccc(O)c(O)c2)oc2cc(O)cc(O)c12 [QUERCETIN],0.61,,0.06,,,45.1%,,Activity [5]: 19.2%; Activity [14]: 33.6%
COc1ccc(N(C)C(=O)Oc2cccc3c2C(CCC(=O)O)CN3)cc1 (configuration not stated),,417,4.33,11,37.8,inactive,95.5,
CCN(C)C(=O)Oc1ccc2c(c1)N(CCC(=O)OC)CC2,2.18,6.8,0.22,,,,,
O=C(O)CCC1CNc2cccc(O)c21 (configuration not stated),,,1.44,,,,,Activity [14]: 19.1%
COC(=O)CCc1c[nH]c2cc(OC(=O)N(C)c3ccc(OC)cc3)ccc12,,,,,> 600,43.1%,,Activity (H9c2 [11]): 48.2%
COC(=O)CCC1CN(C)c2cccc(OC(=O)N(C)c3ccc(OC)cc3)c21 (configuration not stated),,> 600,15.3,> 2.4,246,inactive,107,
COC(=O)CCC1CNc2cc(O)ccc21.Cl (configuration not stated),1.38,,1.34,,,50%,,Activity [5]: 28.2%; Activity (H9c2 [11]): 87%; Activity [14]: 52.1%
COc1ccc(N(C)C(=O)Oc2cccc3c2C(CCC(=O)O)CN3C)cc1 (configuration not stated),,> 600,10.2,> 4.8,125,inactive,101,
CCN(C)C(=O)Oc1cccc2c1C(CCC(=O)OC)CN2.Cl (configuration not stated),4.55,0.3,1.46,,7.4,73%,99.9,
COc1ccc2[nH]cc(CCNC(C)=O)c2c1 [MELATONIN],1020,,95.8,,,,,IC50 [15]: 537 µM; IC50 [16]: 127 µM
CCN(C)C(=O)Oc1cccc2c1C(CCC(=O)O)CN2 (configuration not stated),,0.3,1.59,0.016,19,inactive,93.4,
CN1CC(CCC(=O)O)c2ccc(O)cc21 (configuration not stated),3.25,,0.84,,,,,Activity [14]: 66.3%
Cl.Oc1cccc2c1CCN2,,,1.15,,,38%,,Activity (Gallus gallus [8]): Active; Activity (Gallus gallus [10]): Active
CCCCN(C)C(=O)Oc1ccc2c(c1)N(C)CC2CCC(=O)OC (configuration not stated),,66.8,6.27,0.55,122,,,
C#CCN[C@@H]1CCc2ccc(OC(=O)N(C)CC)cc21 [LADOSTIGIL],,0.48,,0.06,30.3,58.5%,,Activity (H9c2 [11]): 32%
CCN(C)C(=O)Oc1ccc2c(c1)NCC2CCC(=O)O.Cl (configuration not stated),,10,1.14,0.06,175,56.1%,102,

# — ChEMBL document CHEMBL2177019, “Carbamate derivatives of indolines as cholinesterase inhibitors and antioxidants for the treatment of Alzheimer's disease” (J Med Chem, 2012)
